Measurements as given in article PMC10709440, “High-throughput ligand profile characterization in novel cell lines expressing seven heterologous insect olfactory receptors for the detection of volatile plant biomarkers” (Scientific Reports, 2023).
“And” between values parts separate entries of the source, which are not always exact repeats. Equal entries are not always repeated. Where two headings read alike, the source gives them in different places.

Columns and labels:
[1] = target: T1, Drosophila OR10a (Drosophila melanogaster, UniProt Q9VYZ1); experiment: Calcium ion fluorescence (GCaMP6) assay, OR10a stable HEK293 cell line; format: cell-based; conditions: for OR10a response (VUAA1-normalized) at 1 μM / OR10a response (VUAA1-normalized) at 10 μM / OR10a response (VUAA1-normalized) at 100 μM: OR10a cell line; for OR10a response (VUAA1-normalized) at 1 μM: VOC concentration 1 μM; for OR10a response (VUAA1-normalized) at 10 μM: VOC concentration 10 μM; for OR10a response (VUAA1-normalized) at 100 μM: VOC concentration 100 μM
T1 construct: expressed in transfected cells
T1 sequence (Q9VYZ1 1-406): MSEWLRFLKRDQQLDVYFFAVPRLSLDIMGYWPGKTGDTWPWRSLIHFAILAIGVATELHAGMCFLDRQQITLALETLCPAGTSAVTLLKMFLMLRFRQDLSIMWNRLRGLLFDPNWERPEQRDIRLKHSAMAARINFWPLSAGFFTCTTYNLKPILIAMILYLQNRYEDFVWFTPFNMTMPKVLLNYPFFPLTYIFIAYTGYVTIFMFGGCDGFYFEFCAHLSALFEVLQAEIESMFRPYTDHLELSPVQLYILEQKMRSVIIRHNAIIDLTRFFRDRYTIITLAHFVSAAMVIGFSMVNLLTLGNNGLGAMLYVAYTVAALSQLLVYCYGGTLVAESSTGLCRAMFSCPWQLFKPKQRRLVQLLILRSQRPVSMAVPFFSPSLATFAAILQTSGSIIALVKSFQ
T1 sequence (Q9VNB5 1-486 partner): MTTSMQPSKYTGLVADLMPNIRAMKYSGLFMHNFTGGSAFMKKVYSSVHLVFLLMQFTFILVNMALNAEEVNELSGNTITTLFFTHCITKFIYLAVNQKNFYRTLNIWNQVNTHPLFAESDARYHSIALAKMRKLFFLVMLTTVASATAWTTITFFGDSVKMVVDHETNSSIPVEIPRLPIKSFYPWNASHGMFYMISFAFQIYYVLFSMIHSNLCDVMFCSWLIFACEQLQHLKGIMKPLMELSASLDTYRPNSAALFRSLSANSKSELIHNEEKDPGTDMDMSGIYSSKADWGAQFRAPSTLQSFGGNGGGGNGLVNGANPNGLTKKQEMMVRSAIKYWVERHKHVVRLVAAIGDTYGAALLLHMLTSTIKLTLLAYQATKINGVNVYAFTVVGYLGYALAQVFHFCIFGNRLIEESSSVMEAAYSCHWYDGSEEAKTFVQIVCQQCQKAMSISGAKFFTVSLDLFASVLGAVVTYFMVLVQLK
Method: (§1) These VUAA1 normalized ∆F values were used to compare the different receptors and ligands.
(§2) The concentration-dependent effect of the reference ligands on their cognate cell lines was examined in more detail. Twelve different ligand concentrations were measured on each cell line in an overall 0.01 μM to 100 μM concentration range with 5 repetitions with three technical replicates each time.
(§3) Twelve thousand to 18,000 cells were plated into each well of a black wall, transparent bottom 384-well microplate (Greiner) 48 h or 72 h before the measurements and were simultaneously treated with 1 μg/mL doxycycline. […] The plate has 24 columns, thus we could record responses in up to eight different cell lines in each plate. On the day of the experiment, the growth medium was replaced with 20 µL assay buffer/well (140 mM NaCl, 5 mM KCl, 2 mM CaCl2, 1 mM MgCl2, 5 mM HEPES-Na, 20 mM glucose, pH 7.3, 340 mOsm). […] Baseline fluorescence (F0) was recorded for 5 s, after which 7 µL VOC buffer (140 mM NaCl, 5 mM KCl, 2 mM CaCl2, 1 mM MgCl2, 5 mM HEPES-Na, 31 mM glucose, 0.1% DMSO, pH 7.3, 340 mOsm) was injected into each well in one row and the fluorescence response was recorded for an additional 30 s, at a rate of one read/sec. VOC solutions (VOC buffer with 4× concentration of the final measured VOC concentration, 9 µL/well was injected) were measured on the same wells in a second round with the same protocol. Each individual concentration of a specific VOC sample was recorded in three wells for the same cell line on the same microplate. The raw data were exported in xls file format, F0 and FMAX values, and the fluorescence intensity changes (∆F) were calculated in Excel (Microsoft) (Supplementary file Data summary.xlsx) using the following equation: ΔF=FMAX-F0/F0 (see also Fig. 1C). On each plate, we recorded the response of each cell line to 50 µM VUAA1. The average of these ∆F values of each cell line were used to calculate the VUAA1-normalized values for the rest of the plate, by dividing VOC response ∆F values by the average VUAA1 response ∆F value of the corresponding OR cell line. Each VOC-OR combination was measured three times as technical replicates. […] The average of these replicates were used as one ∆F and VUAA1-normalized ∆F in the following analysis.
(§4) In the next rows we tested the reference VOCs (or other VOCs known to activate the corresponding cell lines), in order to test if all cell lines are responsive. The remaining rows were used to test VOCs with unknown effect.
(§5) The recorded FMAX, F0, ∆F, VUAA1-normalized ∆F values, as well as the OR name, the name of the tested sample, and the final concentration for each well were copied into supplementary file Data summary.xlsx, that was used to summarize all the plates recorded. Here, the averages of the measurements were calculated for each receptor-VOC-concentration combination.

[2] = target: T2, Drosophila OR49b (Drosophila melanogaster, UniProt Q9V6H2); experiment: cell-based; conditions: for OR49b response (VUAA1-normalized) at 1 μM / OR49b response (VUAA1-normalized) at 10 μM / OR49b response (VUAA1-normalized) at 100 μM / Average response: OR49b cell line; for Average response: mean of biological replicates
T2 construct: expressed in transfected cells
T2 sequence (Q9V6H2 1-375): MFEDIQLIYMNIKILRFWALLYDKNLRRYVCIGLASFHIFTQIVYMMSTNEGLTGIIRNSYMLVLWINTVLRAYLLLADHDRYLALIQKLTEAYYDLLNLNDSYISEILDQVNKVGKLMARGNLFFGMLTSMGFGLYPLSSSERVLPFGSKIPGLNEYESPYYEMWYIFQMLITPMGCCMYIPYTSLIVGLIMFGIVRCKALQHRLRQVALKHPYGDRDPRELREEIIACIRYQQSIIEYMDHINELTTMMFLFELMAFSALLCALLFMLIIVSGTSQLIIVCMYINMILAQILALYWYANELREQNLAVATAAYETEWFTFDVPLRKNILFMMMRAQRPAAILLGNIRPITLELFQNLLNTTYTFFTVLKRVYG
T2 sequence (Q9VNB5 1-486 partner): T1 sequence (Q9VNB5 1-486 partner)
Method: as §1, §2, §3, §4, §5

[3] = HEK293, 1 μM VOC, 50 μM VUAA1 = 1, responses not exceeding 0.05 considered 0, read-out: OR10a Average response (VUAA1-normalized)
[4] = HEK293, 10 μM VOC, 50 μM VUAA1 = 1, responses not exceeding 0.05 considered 0, read-out: OR10a Average response (VUAA1-normalized)
[5] = HEK293, 100 μM VOC, 50 μM VUAA1 = 1, responses not exceeding 0.05 considered 0, read-out: OR10a Average response (VUAA1-normalized)
[6] = ligand concentration 1 (unit not given), threshold 0.05, below shown as 0
[7] = ligand concentration 10 (unit not given), threshold 0.05, below shown as 0
[8] = ligand concentration 100 (unit not given), threshold 0.05, below shown as 0
[9] = ligand concentration 1 (unit not given), 0.05 threshold, values below shown as 0
[10] = ligand concentration 10 (unit not given), 0.05 threshold, values below shown as 0
[11] = ligand concentration 100 (unit not given), 0.05 threshold, values below shown as 0

CCCOC(C)=O [propyl acetate]
activation at 1 µM [1, 3]: 0%
activation at 10 µM [1, 4]: 9%
activation at 100 µM [1, 5]: 0%
OR10a response (VUAA1-normalized) at 1 μM [1]: 0.00
OR10a response (VUAA1-normalized) at 10 μM [1]: 0.09
OR10a response (VUAA1-normalized) at 100 μM [1]: 0.00
DF norm AVERAGE OR10a [1, 6]: 0
DF norm AVERAGE OR10a [1, 7]: 0.08914
DF norm AVERAGE OR10a [1, 8]: 0
OR49b response (VUAA1-normalized) at 1 μM ([2]; VOC concentration 1 μM): 0.00
OR49b response (VUAA1-normalized) at 10 μM ([2]; VOC concentration 10 μM): 0.00
OR49b response (VUAA1-normalized) at 100 μM ([2]; VOC concentration 100 μM): 0.00
Average response ([2]; odorant cc. 1 µM): 0.00
Average response ([2]; odorant cc. 10 µM): 0.00
Average response ([2]; odorant cc. 100 µM): 0.014
DF norm AVERAGE OR49b [2, 6]: 0
DF norm AVERAGE OR49b [2, 7]: 0
DF norm AVERAGE OR49b [2, 8]: 0

CCCCCCCCC(CO)CCCCCC (stereo not shown) [2-hexyl-1-decanol]
DF norm AVERAGE OR10a [1]: 0.1461 and 0.1055 and 0.1938
activation at 1 µM [1, 3]: 15%
activation at 10 µM [1, 4]: 11%
activation at 100 µM [1, 5]: 19%
activation at 1 µM ([1]; HEK293, read-out: OR10a response (VUAA1-normalized response), VOC concentration 1 μM): 15%
activation at 10 µM ([1]; HEK293, read-out: OR10a response (VUAA1-normalized response), VOC concentration 10 μM): 11%
activation at 100 µM ([1]; HEK293, read-out: OR10a response (VUAA1-normalized response), VOC concentration 100 μM): 19%
activation at 1 µM ([2]; HEK293, VOC concentration 1 μM, read-out: OR49b response (VUAA1-normalized response)): 0%
activation at 10 µM ([2]; HEK293, VOC concentration 10 μM, read-out: OR49b response (VUAA1-normalized response)): 0%
activation at 100 µM ([2]; HEK293, VOC concentration 100 μM, read-out: OR49b response (VUAA1-normalized response)): 8.56%
Average response ([2]; odorant cc. 1 µM): 0.00
Average response ([2]; odorant cc. 10 µM): 0.00
Average response ([2]; odorant cc. 100 µM): 0.0856

CC1=CCC23CC1C(C)(C)C2CCC3C (stereo not drawn) [α-funebrene]
activation at 1 µM [1, 3]: 0%
activation at 10 µM [1, 4]: 0%
activation at 100 µM [1, 5]: 2.42%
OR10a response (VUAA1-normalized) at 1 μM [1]: 0.00
OR10a response (VUAA1-normalized) at 10 μM [1]: 0.00
OR10a response (VUAA1-normalized) at 100 μM [1]: 0.00
DF norm AVERAGE OR10a [1, 9]: 0
DF norm AVERAGE OR10a [1, 10]: 0
DF norm AVERAGE OR10a [1, 11]: 0
OR49b response (VUAA1-normalized) at 1 μM ([2]; VOC concentration 1 μM): 0.00
OR49b response (VUAA1-normalized) at 10 μM ([2]; VOC concentration 10 μM): 0.00
OR49b response (VUAA1-normalized) at 100 μM ([2]; VOC concentration 100 μM): 0.00
Average response ([2]; odorant cc. 1 µM): 0.00
Average response ([2]; odorant cc. 10 µM): 0.00
Average response ([2]; odorant cc. 100 µM): 0.00
DF norm AVERAGE OR49b [2, 9]: 0
DF norm AVERAGE OR49b [2, 10]: 0
DF norm AVERAGE OR49b [2, 11]: 0
